Measurements from patent publication US20260041660A1 (priority 2020, published 2026).

How the values were obtained:
[1] = tested on: peripheral blood lymphocytes (predominantly T-cells); assay: Pilot studies: effect of TPA on peripheral blood lymphocytes; type: cell-based
Source text: In addition to minimizing hyper-inflammatory activities of macrophages and neutrophils, TPA compositions and methods of the invention mediate protection of lymphocytes (prolongation of lifespan), and also directly stimulate lymphocyte proliferation and differentiation. […] This activity will protect and expand lymphocyte numbers, which in turn will mediate potent anti-viral effects.
(§1) The instant disclosure, in conjunction with ongoing pilot studies by the inventors, illustrates a wide range of pro-immune and anti-inflammatory effects of TPA that will potently mediate reduction and/or prevention of ARDS conditions and symptoms, as well as other pathogenic conditions and symptoms associated with severe COVID-19 disease. […] Exemplary pilot studies have shown that TPA compounds will effectively treat and prevent lymphocytopenia, by virtue that these compounds promote full range of pro-immune effects relating to activation, proliferation and survival of lymphocytes. […] Neutrophils are evidently “hijacked” and reprogrammed by SARS-COV-2 proteins (and other emergent pro-inflammatory factors that emerge in the course of COVID-19 disease development), leading to profound dysregulation of neutrophil immune and inflammatory activities. […]

PKC = assay: Inventors' studies: TPA effect on PKC; type: biochemical
Source text: (§2) More complex effects of TPA on MAPK pathways involve TPA regulation of immune cell differentiation and apoptosis.

MAPK = assay: Inventors' studies: TPA effect on MAPK hyper-stimulation; type: cell-based; settings: reduced MAPK activation and phosphorylation activity
Source text: as §2

MAPK and JAK = assay: TPA pro-apoptotic effects via immune-regulatory kinases; type: cell-based; settings: through interactions with MAPK and JAK
Source text: as §1

[2] = type: in vivo, C57Bl/6 mouse
IL-6 = settings: in vitro and in vivo; Stat3, Akt, ERK1/2 pathways; cited from earlier work
[3] = tested on: murine peritoneal macrophages; settings: via suppression of ERK1/2 signaling; cited from earlier work
[4] = polar organic solvents and water; cited from earlier work
HIN1 = settings: reducing infiltration of inflammatory cells, inhibiting pro-inflammatory cytokines; cited from earlier work
SARS-COV-2 [5] = settings: recent in vitro studies; cited from earlier work
SARS-COV-2 [6] = settings: after 48 h of infection with SARS-COV-2; cited from earlier work
COVID-19 = settings: human, in vivo; cited from earlier work

Compound: CCCCCCCCCCCCCC(=O)O[C@@H]1[C@H](C)[C@@]2(O)[C@@H](C=C(CO)C[C@]3(O)C(=O)C(C)=C[C@@H]23)[C@@H]2C(C)(C)[C@]12OC(C)=O (stereo in doubt) [TPA, 12-O-tetradecanoylphorbol-13-acetate]
- mitogenic effect on peripheral blood lymphocytes [1]: direct, clinically effective mitogenic effect
- effect on PKC (PKC): not only activates, but stabilizes PKC
- MAPK hyper-stimulation (MAPK): clinically beneficial reduction in MAPK hyper-stimulation
- apoptotic effects (MAPK and JAK): pro-apoptotic effects
- TNFα content in BALF samples ([2]; 48 hrs): reduction of TNFα content
- protein extravasation in BALF samples ([2]; 48 hrs): reduction of protein extravasation in BALF samples
- ROS generation of lavaged neutrophils ([2]; after 48 hours): significant reduction in ROS generation
- BALF WBC ROS production ([2]; mouse, in vivo): significantly lower
- LPS-induced EBD extravasation ([2]; mouse, in vivo): suppression of LPS-induced EBD extravasation
- hyper-elevation of IL-6, IL-10, TNFα, MIP2 and other pro-inflammatory cytokines ([2]; mouse, in vivo): block or reduce hyper-elevation
- monocyte/macrophage and neutrophil counts ([2]; mouse, in vivo): reduction in monocyte/macrophage and neutrophil counts
- neutrophil and RBC into pulmonary interstitial spaces and alveolar airspaces ([2]; mouse, in vivo): marked reduction in neutrophil and RBC
- presence of neutrophils in BALF ([2]; mouse, in vivo): significantly reduced
- swelling of the alveolar walls ([2]; mouse, in vivo): reduced swelling of the alveolar walls
- histopathologic changes of the lung ([2]; mouse, in vivo, iv): markedly suppressed

Compound: C=C1CC[C@@H]2[C@](C)(CO)[C@H](O)CC[C@@]2(C)[C@@H]1C/C=C1/C(=O)OC[C@H]1O [Andrographolide]
- IL-6 production and IL-6 hyper-inflammatory signaling (IL-6): inhibits IL-6 production and suppresses IL-6 hyper-inflammatory signaling in a dose-dependent manner
- production of TNF-α and interleukin-12 [3]: inhibits the production of TNF-α and interleukin-12

Compound: CC1=C[C@H]2[C@@]3(O)[C@H](C)[C@@H](O)[C@]4(O)[C@H]([C@@H]3C=C(CO)C[C@]2(O)C1=O)C4(C)C [Phorbol]
- solubility [4]: well soluble in most polar organic solvents and in water

Compound: O=C1CCC(N2C(=O)c3ccccc3C2=O)C(=O)N1 (stereo not shown) [Thalidomide]
- treatment of infected mice (HIN1): effective in treating HIN1-infected mice

Compound: CCN(CCO)CCCC(C)Nc1ccnc2cc(Cl)ccc12 (stereo not shown) [hydroxychloroquine]
- viral load/titer of SARS-COV-2 (SARS-COV-2 [5]): effectively reduces viral load/titer of SARS-COV-2

Compound: Ivermectin
- reduce viral RNA (SARS-COV-2 [6]): up to 5,000 fold

Compound: TCZ: recombinant human anti-IL-6 monoclonal antibody that binds soluble and membrane-bound IL-6 receptors
- fever and other ARDS symptoms (COVID-19): reduces fever and other ARDS symptoms
- patients with opacity lung lesion on CT scans absorbed (COVID-19): 90.5%
- patients with peripheral lymphocyte levels returned to normal (COVID-19): 52.6%
- treated subjects showing improved oxygenation (COVID-19): 75.0%
